According to patent US20020197561A1, “Optical data carrier comprising a cyclizable compound in the information layer” (priority 2001, published 2002):

Legend:
Assay type in all cases: physicochemical
[1] = index of refraction of spin-coated dye film over temperature cycle
Procedure: (§1) A 2% strength by weight solution of the dye in 2,2,3,3-tetrafluoropropanol was prepared at room temperature. This solution was applied by means of spin coating to a fused silica substrate. The resulting thickness of the dye film was about 150 nm. This specimen was heated from 50° C. to 133° C. in a stream of helium at a mean heating rate of 3 K/min and subsequently cooled to 81° C. at a mean cooling rate of 1.4 K/min. During the heating and cooling phases, transmission spectra of the specimen in the wavelength range from 200 nm to 1700 nm were recorded. The change in the optical properties resulting from the ring-closure reaction can be observed by looking at the transmission spectra at different temperatures.
The absorption band in the region of 450 nm obviously disappears virtually completely and leads to a change in the absorption properties which can be utilized in the wavelength range from 400 to 500 nm for the optical storage and reproduction of data, for example when a laser beam having an appropriate pulse duration and pulse energy heats the dye layer to above 133° C. Furthermore, each absorption also produces a dispersion of the index of refraction over the wavelength. This leads, in particular on the flanks of the absorption bands, to indices of refraction which are lower (short wavelength flank) or higher (long wavelength flank) than 1.4-1.6, which represents the usual range for colourless organic materials. For example, the index of refraction of the dye at 405 nm is 1.17 at the beginning of the temperature cycle and that at 515 nm is […]. After the temperature cycle, when the absorption band has disappeared virtually completely, the decolourized dye has an index of refraction in the range from 1.4 to 1.6 in the visible spectrum. This change in the index of refraction can likewise be utilized for the optical storage and reproduction of data, for example when a laser beam having an appropriate pulse duration and pulse energy heats the dye layer to above 133° C. […]

[2] = film formed by the dye (spin coating)
From the text: Apart from the abovementioned optical properties, the writeable information layer comprising light-absorbent organic substances has to have a substantially amorphous morphology to keep the noise signal during writing or reading as small as possible. For this reason, it is particularly preferred that crystallization of the light-absorbent substances be prevented in the application of the substances by spin coating from a solution, by vapour deposition and/or sublimation during subsequent covering with metallic or dielectric layers under reduced pressure.
as §1

[3] = cyclization temperature Tcyc by Differential Thermal Analysis (DTA); conditions: for cyclization temperature Tcyc: determined using DTA; for Tcyc: table, DTA
Procedure: The cyclization temperature Tcyc is determined, for example, by means of Differential Thermal Analysis DTA. In the case of the preferred exothermic cyclization, it corresponds to the maximum of the rearrangement signal. The heating rate in the DTA measurements is, for example, 10° C. per minute. Under these conditions, the width at half height of the rearrangement signal is preferably less than 10° C., particularly preferably less than 7° C., very particularly preferably less than 5° C. For the purposes of the invention, the width at half height is the width of the signal at a height halfway between the base and the apex.
cyclization temperature Tcyc: 123° C. (determined using DTA, see description. This also applies to the other examples).

[4] = solubility in TFP (2,2,3,3-tetrafluoropropanol)
[5] = absorption spectra measured in solution (λmax, ε, shift Δλmax after thermal cyclization); set-up: λmax: unit: nm (local absorption maximum, 350–470 nm range); Δλmax: unit: nm; negative = hypsochromic shift; conditions: for absorption shift after cyclization Δλmax: after thermal cyclization, negative = hypsochromic; for Δλmax: shift after thermal cyclization; for λmax: solvent not given
From the text: Preference is given to dyes in which the shift in the absorption maximum induced by thermal cyclization, Δλmax, is 25 nm or more, preferably ≧35 nm, in particular ≧45 nm. If a preferably hypsochromic shift occurs, then Δλmax is negative. For the purposes of the invention, the absorption maximum is the local maximum in the range from 350 to 470 nm; it is not necessarily the absolute maximum in the UV/VIS spectrum in the range from 190 to 800 nm.
The light-absorbent compounds preferably have a molar extinction coefficient ε of >20 000 l/mol cm, preferably >30 000 l/mol cm, particularly preferably >40 000 l/mol cm, very particularly preferably >50 000 l/mol cm, at the absorption maximum λmax.
The absorption spectra are, for example, measured in solution.

[6] = molar extinction coefficient at λmax

Structure (SMILES)	index of refraction ([1]; after the temperature cycle (50 to 133° C.), visible spectrum, decolourized dye)	index of refraction ([1]; at 405 nm, beginning of the temperature cycle, about 150 nm film on fused silica)	index of refraction ([1]; at 515 nm, beginning of the temperature cycle)	film [2]	cyclization temperature Tcyc [3] [°C]	solubility [4] [%]	absorption shift after cyclization Δλmax [5] [nm]	λmax (methanol) [5] [nm]	ε [5, 6]	Tcyc [3] [°C]	ε ([5]; table)	Δλmax ([5]; table)	λmax ([5]; table)
CCOC(=O)/C(C#N)=C/C=C1\NCCc2cc(OC)c(OC)cc21 [Example 1]	1.4-1.6	1.17	2.17	glass-like film	123	> 2	−49	447	47 560 l/mol cm				
CCc1ccc2c(NC(C)C)c(/C=C\C(=O)OC)c(=O)oc2c1 [Example 3]				glass-like film	206	1	−20	359	20 700 l/mol cm				
CCCCNC1=C(/C=C(/C#N)C(=O)OCC)CCC1 [Example 4]				glass-like film	198	> 2	−72	441	36 910 l/mol cm				
CCOC(=O)/C(C#N)=C/C=C1\NCCc2ccccc21 [Example 5]										124	53 320	−46	440
CCC1Cc2cc(OC)ccc2/C(=C/C=C(\C#N)C(=O)OCCOC)N1 (centres unmarked) [Example 8]										212	37 520	−50	444
CCOC(=O)/C(C#N)=C/C(C#N)=C1\NC(CC)Cc2cc(N(C)C)ccc21 (centres unmarked) [Example 9]										207	63 160	−53	452
Cc1ccc(N/C=C\c2c(C#N)c(=O)oc3ccccc23)cc1C [Example 11]										157	30 820	>|100|*	467
CCc1ccc(N/C=C(/Br)c2c(C#N)c(=O)[nH]c3ccc(CC)cc23)cc1 [Example 12]										161	32 140	>|100|*	463
CCCCN/C=C\c1c(C(=O)OC(C)C)c(=O)oc2cc(OC)c(OC)cc12 [Example 13]										81	24 580	−50	422
Cc1ccc(S(=O)(=O)OCc2c(/C=C\NC3CCCCC3)c3ccccc3oc2=O)cc1 [Example 14]										175	21 750	−15	368
N#Cc1c(/C=C\Nc2ccccc2)c2ccc(-n3nccn3)cc2oc1=O [Example 15]										146	38 540	>|100|*	468
COc1ccc(Nc2c(C=C(C#N)C#N)c(=O)oc3ccccc23)cc1OC [Example 16]										167	26 670	−38	386
CCOC(=O)/C(C#N)=C/C1=C(Nc2ccc(OC)cc2)CCCC1 [Example 17]										176	33 200	−65	445
CCCCNC1=C(C=C(C#N)C#N)CCC1 [Example 18]										174	37 840	−70	440
